What was measured:
Type in all cases: in vivo
Conditions in all cases: 250 g/ha unless otherwise stated, evaluated after 13 days, five-point scale
Setaria faberi (SETFA) [1] = assay: Test 1 glasshouse herbicide test, post-emergence application (Table B1)
Procedure, shortened: (§1)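 Pots sown in standard soil; sprayed 1 day (pre-emergence) or 8 days (post-emergence) after sowing at 250 g/ha unless stated, in acetone/water (50:50) with 0.5% Tween 20. Glasshouse 24/16 °C, 14 h light, 65% humidity; damage scored at 13 days on a 1–5 scale (5=81–100%, 1=0–20%).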

[2] = tested on: Ipomoea hederacea (IPOHE); assay: as above
Procedure, shortened: as §1

Lolium perenne (LOLPE) [3] = assay: as above
Procedure, shortened: as §1

[4] = tested on: Amaranthus retoflexus (AMARE); assay: as above
Procedure, shortened: as §1

Solanum nigrum (SOLNI) [5] = assay: as above
Procedure, shortened: as §1

[6] = tested on: Echinochloa crus-galli (ECHCG); assay: as above
Procedure, shortened: as §1

Setaria faberi (SETFA) [7] = assay: Test 1 glasshouse herbicide test, pre-emergence application (Table B2)
Procedure, shortened: as §1

[8] = tested on: Ipomoea hederacea (IPOHE); assay: as above
Procedure, shortened: as §1

Lolium perenne (LOLPE) [9] = assay: as above
Procedure, shortened: as §1

[10] = tested on: Amaranthus retoflexus (AMARE); assay: as above
Procedure, shortened: as §1

Solanum nigrum (SOLNI) [11] = assay: as above
Procedure, shortened: as §1

[12] = tested on: Echinochloa crus-galli (ECHCG); assay: as above
Procedure, shortened: as §1

SMILES | % phytotoxicity SETFA, post-emergence application (Setaria faberi (SETFA) [1]) | % phytotoxicity IPOHE, post-emergence application [2] | % phytotoxicity LOLPE, post-emergence application (Lolium perenne (LOLPE) [3]) | % phytotoxicity AMARE, post-emergence application [4] | % phytotoxicity SOLNI, post-emergence application (Solanum nigrum (SOLNI) [5]) | % phytotoxicity ECHCG, post-emergence application [6] | % phytotoxicity SETFA, pre-emergence application (Setaria faberi (SETFA) [7]) | % phytotoxicity IPOHE, pre-emergence application [8] | % phytotoxicity LOLPE, pre-emergence application (Lolium perenne (LOLPE) [9]) | % phytotoxicity AMARE, pre-emergence application [10] | % phytotoxicity SOLNI, pre-emergence application (Solanum nigrum (SOLNI) [11]) | % phytotoxicity ECHCG, pre-emergence application [12]
Fc1cccc(Oc2ncc(Cl)cn2)c1SCCC(F)(F)F [Compound A7] | 5 (5=81 to 100%) | 2 (2=21 to 40%) | 2 (2=21 to 40%) | 5 (5=81 to 100%) | 5 (5=81 to 100%) | 4 (4=61 to 80%) | 5 (5=81 to 100%) | 2 (2=21 to 40%) | 4 (4=61 to 80%) | 5 (5=81 to 100%) | 4 (4=61 to 80%) | 5 (5=81 to 100%)
[O-][S+](CCC(F)(F)F)c1c(F)cccc1Oc1ncc(Cl)cn1 (stereo not drawn) [Compound A8] | 3 (3=41 to 60%) | 2 (2=21 to 40%) | 1 (1=0 to 20%) | 5 (5=81 to 100%) | 4 (4=61 to 80%) | 1 (1=0 to 20%) | 4 (4=61 to 80%) | 2 (2=21 to 40%) | 2 (2=21 to 40%) | 5 (5=81 to 100%) | 4 (4=61 to 80%) | 2 (2=21 to 40%)
O=S(=O)(CCC(F)(F)F)c1c(F)cccc1Oc1ncc(Cl)cn1 [Compound A9] | 4 (4=61 to 80%) | 3 (3=41 to 60%) | 3 (3=41 to 60%) | 5 (5=81 to 100%) | 5 (5=81 to 100%) | 3 (3=41 to 60%) | 5 (5=81 to 100%) | 4 (4=61 to 80%) | 4 (4=61 to 80%) | 5 (5=81 to 100%) | 5 (5=81 to 100%) | 4 (4=61 to 80%)
FC(F)(F)CCSc1c(Cl)cccc1Oc1ncc(Cl)cn1 [Compound A10, 5-chloro-2-[3-chloro-2-(3,3,3-trifluoropropylsulfanyl)phenoxy]pyrimidine] | 5 (5=81 to 100%) | 4 (4=61 to 80%) | 5 (5=81 to 100%) | 5 (5=81 to 100%) | 5 (5=81 to 100%) | 5 (5=81 to 100%) | 5 (5=81 to 100%) | 3 (3=41 to 60%) | 4 (4=61 to 80%) | 5 (5=81 to 100%) | 4 (4=61 to 80%) | 5 (5=81 to 100%)
[O-][S+](CCC(F)(F)F)c1c(Cl)cccc1Oc1ncc(Cl)cn1 (stereo not drawn) [Compound A11] | 5 (5=81 to 100%) | 5 (5=81 to 100%) | 4 (4=61 to 80%) | 5 (5=81 to 100%) | 5 (5=81 to 100%) | 5 (5=81 to 100%) | 5 (5=81 to 100%) | 5 (5=81 to 100%) | 5 (5=81 to 100%) | 5 (5=81 to 100%) | 5 (5=81 to 100%) | 5 (5=81 to 100%)
O=S(=O)(CCC(F)(F)F)c1c(Cl)cccc1Oc1ncc(Cl)cn1 [Compound A12] | 5 (5=81 to 100%) | 4 (4=61 to 80%) | 5 (5=81 to 100%) | 5 (5=81 to 100%) | 5 (5=81 to 100%) | 5 (5=81 to 100%) | 5 (5=81 to 100%) | 5 (5=81 to 100%) | 5 (5=81 to 100%) | 5 (5=81 to 100%) | 5 (5=81 to 100%) | 5 (5=81 to 100%)
N#Cc1cccc(Oc2ncc(Cl)cn2)c1SCCC(F)(F)F [Compound A13] | 5 (5=81 to 100%) | 4 (4=61 to 80%) | 5 (5=81 to 100%) | 5 (5=81 to 100%) | 5 (5=81 to 100%) | 5 (5=81 to 100%) | 5 (5=81 to 100%) | 4 (4=61 to 80%) | 5 (5=81 to 100%) | 5 (5=81 to 100%) | 5 (5=81 to 100%) | 5 (5=81 to 100%)
N#Cc1cccc(Oc2ncc(Cl)cn2)c1[S+]([O-])CCC(F)(F)F (stereo not drawn) [Compound A14] | 5 (5=81 to 100%) | 5 (5=81 to 100%) | 4 (4=61 to 80%) | 5 (5=81 to 100%) | 5 (5=81 to 100%) | 5 (5=81 to 100%) | 5 (5=81 to 100%) | 5 (5=81 to 100%) | 3 (3=41 to 60%) | 5 (5=81 to 100%) | 5 (5=81 to 100%) | 5 (5=81 to 100%)
N#Cc1cccc(Oc2ncc(Cl)cn2)c1S(=O)(=O)CCC(F)(F)F [Compound A15] | 5 (5=81 to 100%) | 5 (5=81 to 100%) | 4 (4=61 to 80%) | 5 (5=81 to 100%) | 5 (5=81 to 100%) | 5 (5=81 to 100%) | 5 (5=81 to 100%) | 5 (5=81 to 100%) | 5 (5=81 to 100%) | 5 (5=81 to 100%) | 5 (5=81 to 100%) | 5 (5=81 to 100%)
Clc1cnc(Oc2ccccc2SCc2ccccc2)nc1 [Compound A16] | 2 (2=21 to 40%) | 1 (1=0 to 20%) | 1 (1=0 to 20%) | 4 (4=61 to 80%) | 3 (3=41 to 60%) | 1 (1=0 to 20%) | 2 (2=21 to 40%) | 1 (1=0 to 20%) | 1 (1=0 to 20%) | 4 (4=61 to 80%) | 1 (1=0 to 20%) | 2 (2=21 to 40%)
O=S(=O)(CCCC(F)(F)F)c1c(Cl)cccc1Oc1ncc(Cl)cn1 [Compound A24] | 5 (5=81 to 100%) | 5 (5=81 to 100%) | 5 (5=81 to 100%) | 5 (5=81 to 100%) | 5 (5=81 to 100%) | 5 (5=81 to 100%) | 5 (5=81 to 100%) | 5 (5=81 to 100%) | 4 (4=61 to 80%) | 5 (5=81 to 100%) | 5 (5=81 to 100%) | 5 (5=81 to 100%)
FC(F)(F)CCCSc1c(Cl)cccc1Oc1ncc(Cl)cn1 [Compound A25] | 5 (5=81 to 100%) | 3 (3=41 to 60%) | 5 (5=81 to 100%) | 5 (5=81 to 100%) | 5 (5=81 to 100%) | 5 (5=81 to 100%) | 5 (5=81 to 100%) | 1 (1=0 to 20%) | 5 (5=81 to 100%) | 5 (5=81 to 100%) | 5 (5=81 to 100%) | 5 (5=81 to 100%)
